Data on one molecule can be found in patent US11696903B2, “Compounds and methods for scavenging dicarbonyl electrophiles” (VANDERBILT UNIVERSITY, priority 2019, dated 2023).

Data set [1] has as its system LG-histone adducts in RAW264.7 cells. Briefly: LG-lysyl adduct formation on histones in RAW264.7 cells (LC/ESI/MS/MS). The data set is classed as cell-based, mouse. Here is the method:
FIGS. 11A, 11B, 11C, 11D, 11E, and 11F are a series of graphs showing that LG-lysine adducts of histones are found in cells and tissue, dependent on COX-2 activity. RAW264.7 mouse macrophage (A) and A549 human lung carcinoma (C) cells were stimulated to express COX-2, then given 20 μM arachidonic acid (AA) or vehicle. A subgroup of cells was preincubated 45 min with 50 μM indomethacin. As a measure of COX activity, PGE2 was determined by GC/MS from cell media prior to lysis (B and D). Nuclei were isolated, and histones were extracted and digested to individual amino acids prior to LC/EST/MS/MS analysis. *, p<0.05; ***, p<0.001 by ANOVA followed by Tukey's post-test (n≥5). (E). Histones were extracted from nuclei of rat liver, and analyzed as above for LG-lactam adduct. COX-2 protein was analyzed by Western blotting and plotted against lactam adduct levels. Each point corresponds to 1 liver, and shown is the line of regression (r^2=0.7237). Pearson r=0.8507; two-tailed p=0.0152. (F) LC-MS chromatograph of histones isolated from a rat liver with relatively high COX-2 expression (COX-2 band intensity of 117 arbitrary units).
(A). Scavengers were screened in RAW264.7 cells for the ability to decrease LG adduct formation on histones. Scavengers used were glucosamine (GA), 3-methoxysalicylamine (3-MoSA), pentylpyridoxamine (PPM), and 5-ethylsalicylamine (EtSA). Cells were stimulated to express COX-2, pretreated 45 min. with 500 μM scavenger or vehicle (H2O), and given 20 μM AA for 1 h before lysing and extracting histones. Histone proteins were analyzed by LC/ESI/MS/MS for LG-lysyl lactam adduct, n=2. (B) Stimulated A549 cells were pretreated with 30, 300, or 1000 μM EtSA prior to 1 h with 20 μM AA, and histones analyzed for LG-lysyl adduct. *, p<0.05 by one-way ANOVA followed by Dunnett's multiple comparisons post-test (n=3-5). (C). A549 cells were stimulated, pretreated 45 min. with 1000 μM EtSA or H2O vehicle, and given 20 μM AA for 1 h. Media was analyzed by GC/MS for PGE2 (n=3). There was no effect on PGE2 production at lower doses of EtSA (data not shown).
To stimulate COX-2 expression, A549 or RAW264.7 cells were treated overnight with 5 ng/mL IL-1B (A549) or 10 μg/mL LPS and 10 U/mL IFNγ (RAW264.7) in serum-free medium. When indicated, cells were pretreated with indomethacin, aldehyde scavengers (glucosamine, 3-MoSA, PPM or EtSA), or vehicle (ethanol for indomethacin, H2O for scavengers) for 45 min, and then given 20 μM arachidonic acid (AA) or DMSO vehicle for 1 h before lysing.
Cultured cells were lysed in hypotonic buffer (10 mM Tris/10 mM NaCl/3 mM MgCl2) containing 1 mM pyridoxamine and 100 μM indomethacin to prevent the artifactual formation of LGE2 during the lytic process. […] Protein concentration was determined using the method of Bradford. […]

Data set [2] in a line: EtSA in gastric tissues (LC/ESI/MS/MS). Conditions: EtSA in drinking water. The data set is classed as in vivo, INS-GAS mice. Here is the method:
FIGS. 16A, 16B, 16C, 16D, 16E, and 16F show INS-GAS mice (8 per group) were infected or not with H. pylori strain PMS for 8 weeks and then treated with EtSA (7.5 mg/ml) one week after infection. (A) EtSA concentration in gastric tissues; **P<0.01, ****P<0.0001 vs. mice without EtSA. (B) Frequency of diagnoses. IMC, intramucosal carcinoma; LGD, low grade dysplasia; ND, no dysplasia. (C) Quantification of extent of dysplasia and cancer as a percentage of tissue sections. (D) H&E staining of INS-GAS mouse stomach tissues, showing carcinoma in an infected mouse; scale bar, 50 μm. In B and C, *P<0.05, **P<0.01 vs. infected mice.
As discussed further in the Examples, the human gastric epithelial cell line AGS was infected with Hp PMSS1±10 mM EtSA. FVB/N insulin-gastrin (INS-GAS) mice and Mongolian gerbils were infected for 8 wk with Hp PMSS1 and 7.13, respectively; EtSA (0.75% in water) was given to animals beginning one wk post-infection. Lys-LG adducts, a marker of electrophile reactions, and EtSA were quantified by LC/EST/MS/MS. Histology was analyzed on H&E staining. DNA damage was evaluated by pH2AX staining. Hp colonization was quantified by culture. Mucosal immune responses were determined by RNA profiling and by Luminex assay. Mice were imaged using PET/CT with ^18F-FDG (inflammation marker) and ^18F—NaF (tumor marker). […]

In the case of `CCc1ccc(O)c(CN)c1` [EtHOBA, 5-ethyl-2-hydroxybenzylamine], in data set [1] (in comparison with salicylamine, pyridoxamine and their other analogues), the “potency in protecting histones from modification by levuglandins” value is “most potent”. For the same molecule, the “LG adduct formation on histones” value in data set [1] (stimulated RAW264.7, 500 μM scavenger 45 min, 20 μM AA 1 h) is “most effectively blocked”. In data set [2], the “EtSA bioavailability in the stomach” value was “bioavailable in the stomach”.
